The results in this text go back to paper PMC13095444, “Discovery of RGS2-FBXO44 interaction inhibitors using a cell-based NanoBit assay” (Molecular Pharmacology, 2025).

Data set [1] concerns the target T1, RGS2-FBXO44 interaction (Homo sapiens, UniProt P41220).
T1 construct: expressed in transfected cells
T1 sequence (P41220 1-211): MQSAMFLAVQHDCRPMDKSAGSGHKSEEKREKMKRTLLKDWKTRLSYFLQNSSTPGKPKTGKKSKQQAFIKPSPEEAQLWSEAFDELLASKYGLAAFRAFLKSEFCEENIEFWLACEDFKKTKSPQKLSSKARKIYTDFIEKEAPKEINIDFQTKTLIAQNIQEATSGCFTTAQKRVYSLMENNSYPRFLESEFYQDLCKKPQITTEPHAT
Nature of the data set: RGS2-FBXO44 NanoBit assay (HEK-293T RGS2-SmBiT/LgBiT-FBXO44 stable clone #6). It counts as cell-based. The settings on record: for % Inhibition @ 100 μM of RGS2-FBXO44 NanoBit signal: 16–18 hours, fresh powder, luminescence normalized to viability, vs nontreated cells; for IC50: concentrations 500 to 0.01 μM, RLU normalized to viability (RFU), read-out: IC50 (μM), inhibition of RGS2-FBXO44 NanoBit signal. As to the method: Nano-Glo Live Cell Substrate (LCS) was diluted 1:50 in HBSS to form a 2× stock, and then, 15 μL was added to each well. Plates were shaken on an orbital shaker at 500 rpm for 5 minutes protected from light and then spun down at 1000 rpm for 30 seconds. Plates were incubated at room temperature for 20 minutes, and then, luminescence was detected on a Synergy Neo2 multimode plate reader.
(§1) HEK-293T-RGS2-FBXO44 NanoBit cells were treated for 16–18 hours with compound at 100 μM. This relatively high concentration was chosen because of the challenging nature of our assay (intracellular PPI inhibition). Parental HEK-293T cells were used as a negative control. […] Based on these criteria, 97 compounds were identified as hits from our primary screen (6.1% initial hit rate). To confirm hits, the same assay was repeated in triplicate, which delivered 34 compounds that reached the threshold for inhibition in at least 2 replicates with <25% cell toxicity (Fig. 2C; Supplemental Table 1), thus rendering a final hit rate of 2.1%.
Fresh powders of 20 compounds were purchased and reassayed for their ability to inhibit the RGS2-FBXO44 NanoBit signal, using the same assay paradigm as in the primary screen (Fig. 3; Table 1). […] Nevertheless, all compounds were confirmed to inhibit the RGS2-FBXO44 NanoBit signal at this high concentration.
We next assessed the concentration-dependent effect of our 20 hits. Compounds were assayed at concentrations ranging from 500 to 0.01 μM. NanoBit luminescence (relative luminescence units) was normalized to viability (RFU) and presented as a percentage of untreated cells.

Data set [2] relates to HEK-293T-RGS2-FBXO44 NanoBit cells. Kind of data set: Cell viability assay (GF-AFC fluorescence) multiplexed with NanoBit. It counts as cell-based, Human. Conditions: 100 μM; for Viability (% of Control): 16–18 hours, fresh powder. On the procedure: The cells were plated in DMEM without phenol red (Gibco, #21063), 0.1% BSA in a white, tissue culture-treated 384-well plate (Perkin Elmer) at 15,000 cells/well, unless indicated otherwise, and allowed to attach. The plate was centrifuged at 212 × g for 30 seconds to aid in even cell adherence. Compound treatments were initiated 4–5 hours after plating. Following indicated treatment times, media was removed from the plate using BioTek ELx405 plate washer. Additionally, 10 μL of Hank’s Balanced Salt solution (HBSS) with 0.1% BSA was added to each well, followed by 5 μL of glycyl-phenylalanyl-aminofluorocoumarin (GF-AFC; MP Biomedicals) diluted 1:1000 in 100 mM HEPES. Plates were then centrifuged at 212 × g for 30 seconds and then incubated at 37 °C for 30 minutes. Fluorescence was detected on a Synergy Neo2 multimode plate reader (BioTek/Agilent).
Our primary assay using the HEK-293T RGS2-FBXO44 NanoBit cell line was extensively optimized to ensure maximum quality for screening. Coupling a fluorescent cell viability assay with our screen would allow us to rule out cytotoxic compounds while also hopefully reducing outliers from pipetting errors while plating cells. Thus, we multiplexed our NanoBit assay with cell viability using a cell-permeable fluorogenic protease substrate (glycyl-phenylalanyl-aminofluorocoumarin; GF-AFC; [Niles et al, 2007]), which can be combined with a luminescent readout without interfering with the luciferase signal. We previously utilized a similar multiplexing strategy in several screens ([Sjögren et al, 2012]; [Raveh et al, 2014]; [Sjögren et al, 2015]). We assessed and optimized treatment conditions (time, temperature, and reagent volume), cell density, buffer composition, and DMSO tolerance. In addition to the supplied proprietary LCS buffer (Promega), we also tested DMEM, 0.1% BSA, PBS, and HBSS (Supplemental Fig. 1A–C). […] The luminescent signal was stable up to 45 minutes after reagent addition, and we chose to run subsequent assays using 20 minutes of incubation time (Supplemental Fig. 1E). We also observed no effect on either viability or luminescence signal at DMSO concentrations <1% (Data not shown).
as §1

For data set [3], the system named is RGS2 protein levels. Nature of the data set: PathHunter ProLabel assay of RGS2 protein levels in HEK-293T-RGS2-PL cells. The format is cell-based, Human. The settings on record: 100 μM compound overnight (16–18 hours). As to the method:
The PathHunter ProLabel assay was run as described previously ([Sjögren et al, 2012]; [Raveh et al, 2014]; [Sjögren et al, 2015]). Briefly, HEK-293T-RGS2-PL cells were plated at 10,000 cells per well in a white, tissue culture-treated 384-well plate (Perkin Elmer) in DMEM without phenol red (#21063; Gibco) and 0.1% BSA. The cells were allowed to attach for 4 hours, followed by treatment with DMSO, 10 μM MG-132, or 100 μM of compounds. Prior to the detection of RGS2 protein levels by the ProLabel assay, a fluorescent viability assay was performed in the same well, as described above. PathHunter ProLabel reagents (DiscoveRx) were prepared according to the manufacturer’s directions and added to the plate, followed by incubation at room temperature for 1 hour. Luminescence corresponding to RGS2-PL protein levels was detected using a Synergy Neo2 multimode plate reader.
Compounds that inhibit the interaction between RGS2 and FBXO44 would protect RGS2 from proteasomal degradation and result in increased RGS2 protein levels. We therefore next assayed our 20 hits for their ability to increase RGS2 protein levels. We first performed western blot analysis of HEK-293T cells transfected with RGS2-HA and FLAG-FBXO44 and treated overnight (16–18 hours) with 100 μM compound, using proteasome inhibitor MG-132 as a positive control (10 μM). […] Although somewhat disappointing, given the limited sensitivity of western blot, we opted to also test the compounds using an alternate assay paradigm. Specifically, we used the PathHunter ProLabel assay (DiscoveRx), an enzyme complementation assay in which a protein of interest is tagged with a 4 kDa part of β-galactosidase (ProLabel; PL). The chemiluminescent signal in the assay correlates with relative levels of the PL-tagged target protein. We previously developed a stable HEK-293T-RGS2-PL cell line that was used in several high-throughput screening campaigns ([Sjögren et al, 2012]; [Raveh et al, 2014]; [Sjögren et al, 2015]). The PathHunter ProLabel assay offers a more quantitative measurement of protein levels, with a larger dynamic range than a western blot. We treated HEK-293T-RGS2-PL cells overnight (16–18 hours) with 100 μM compound and used 10 μM MG-132 as a positive control.
As a further validation of the action of compound 10, we assessed whether the ability to increase RGS2 protein levels was dependent on FBXO44 using the PathHunter ProLabel assay. HEK-293T-RGS2-PL cells transfected with either nontargeting (NT) or FBXO44-targeting siRNA were treated overnight (16–18 hours) with vehicle or compound 10 (100 μM). […] Thus, compound 10 increases RGS2 protein levels through a mechanism that is dependent on FBXO44.

For data set [4], the target named is T2, RGS2-SmBiT (UniProt P41220 1-211).
T2 construct: Regulator of G protein signaling 2 (RGS2); cloned in-house into pBiT2.3-C[CMV/SmBiT/Blast]; The linker between RGS2 and SmBiT is not described; In the BiBiT construct RGS2-SmBiT and LgBiT-FBXO44 are expressed from one plasmid with a bidirectional CMV promoter; also called C-terminally tagged RGS2; source: HEK-293T, transiently transfected, in live cells; not shown: SmBiT, C-terminal, kept
T2 sequence (looked up): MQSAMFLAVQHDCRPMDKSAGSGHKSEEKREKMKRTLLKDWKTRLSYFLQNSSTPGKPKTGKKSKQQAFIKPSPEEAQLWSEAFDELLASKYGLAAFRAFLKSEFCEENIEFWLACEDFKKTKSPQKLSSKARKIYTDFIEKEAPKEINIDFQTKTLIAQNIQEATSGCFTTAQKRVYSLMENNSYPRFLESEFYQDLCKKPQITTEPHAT
Nature of the data set: split reporter (BiFC, NanoBiT); NanoBiT luminescence in live, transiently transfected HEK-293T cells; every combination of RGS2 and FBXO44 NanoBiT constructs; 15,000 cells/well, 2 hours incubation. Conditions: partners not purified.

In general, IC50 refers to the concentration needed to halve the response being measured.

Take `Cc1cccc(C(=O)N2CCN(c3nc(C)cc(N4CCCCC4)n3)CC2)c1` [Compound 1]: in data set [1], the “% Inhibition @ 100 μM of RGS2-FBXO44 NanoBit signal” value is reported as 48.9∗∗∗∗ % and the IC50 worked out at 58 µM. In addition, in data set [2], the “Cell toxicity (in words)” value is given as “significant toxicity” and the “Viability (% of Control)” value is reported as 45.8∗∗∗∗ % of Control. Further, the “RGS2 protein levels (PathHunter ProLabel)” value in data set [3] is listed as “significantly increased RGS2 protein levels”.
As for `CCCCNC(=O)c1nnn(-c2ccccc2)c1C(C)C` [Compound 16], in data set [1], the “% Inhibition @ 100 μM of RGS2-FBXO44 NanoBit signal” value was 75.8∗∗∗∗ % and the 50% inhibitory concentration (IC50) is 54.8 µM. Besides, the “Viability (% of Control)” value in data set [2] is reported as 93.7 % of Control.
In the same order, the values of `CCc1nc(C)cn1S(=O)(=O)c1cc(OC)c(C)cc1C` [Compound 20] are 67.3∗∗∗∗ %, 4.4 µM and 44.4∗∗∗∗ % of Control.

B1: LgBiT-FBXO44 (natural protein, UniProt Q9H4M3 1-255, looked up)
chain: MAVGNINELPENILLELFTHVPARQLLLNCRLVCSLWRDLIDLVTLWKRKCLREGFITEDWDQPVADWKIFYFLRSLHRNLLHNPCAEEGFEFWSLDVNGGDEWKVEDLSRDQRKEFPNDQVKKYFVTSYYTCLKSQVVDLKAEGYWEELMDTTRPDIEVKDWFAARPDCGSKYQLCVQLLSSAHAPLGTFQPDPATIQQKSDAKWREVSHTFSNYPPGVRYIWFQHGGVDTHYWAGWYGPRVTNSSITIGPPLP
notes: F-box Only Protein 44 (FBXO44); cloned in-house into pBiT1.3-N[CMV/LgBiT/Hygro]; The linker between LgBiT and FBXO44 is not described; also called N-terminally tagged FBXO44; source: HEK-293T, transiently transfected, in live cells; not shown: LgBiT, N-terminal, kept
As for B1, the “fold luminescence signal against the opposite tagging (RGS2-LgBiT with SmBiT-FBXO44)” value in data set [4] stood at 3.5 fold.
